Test results from the supplement of paper PMC10307832.

Legend:
Experiment in all cases: relative viability (nuclei count vs DMSO), 5 days (fraction); higher = more cells survive
[1] = compound: C(C(=O)C(=O)O)Br [Bromopyruvate] + O=C(CCCCCCC(=O)Nc1ccccc1)NO [Vorinostat] (partner 1 µM)
Procedure, shortened: (§1)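 Values are medians from duplicate plates. Each reflects relative viability, defined as the nuclei count of treated wells over that of vehicle wells. Lung cancer cell lines in 1536-well plates were pin-tool dosed one day after seeding with one drug alone or with a fixed anchor-drug dose plus five library-drug doses (not always all listed) in √10 steps, then fixed, stained and imaged at 4× after 5 days.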

Bromopyruvate + OSI-027 = compound: C(C(=O)C(=O)O)Br [Bromopyruvate] + COc1cccc2cc(-c3nc([C@H]4CC[C@H](C(=O)O)CC4)n4ncnc(N)c34)[nH]c12 [OSI-027] (partner 0.5 µM)
Procedure, shortened: as §1

[2] = compound: CC(O)(CS(=O)(=O)c1ccc(F)cc1)C(=O)Nc1ccc(C#N)c(C(F)(F)F)c1 [Bicalutamide] + C[C@]1(O)C[C@@H](c2nc(-c3ccc4ccc(-c5ccccc5)nc4c3)c3c(N)nccn32)C1 [Linsitinib] (partner 1 µM)
Procedure, shortened: as §1

[3] = compound: CC(O)(CS(=O)(=O)c1ccc(F)cc1)C(=O)Nc1ccc(C#N)c(C(F)(F)F)c1 [Bicalutamide] + CC1(C)CCC(c2ccc(Cl)cc2)=C(CN2CCN(c3ccc(C(=O)NS(=O)(=O)c4ccc(N[C@H](CCN5CCOCC5)CSc5ccccc5)c(S(=O)(=O)C(F)(F)F)c4)cc3)CC2)C1 [Navitoclax] (partner 0.5 µM)
Procedure, shortened: as §1

Cell Line | relative viability ([1]; first compound 1 µM) | relative viability ([1]; first compound 3.162 µM) | relative viability ([1]; first compound 10 µM) | relative viability ([1]; first compound 31.62 µM) | relative viability ([1]; first compound 100 µM) | relative viability (Bromopyruvate + OSI-027; first compound 1 µM) | relative viability (Bromopyruvate + OSI-027; first compound 3.162 µM) | relative viability (Bromopyruvate + OSI-027; first compound 10 µM) | relative viability (Bromopyruvate + OSI-027; first compound 31.62 µM) | relative viability (Bromopyruvate + OSI-027; first compound 100 µM) | relative viability ([2]; first compound 0.08 µM) | relative viability ([2]; first compound 0.253 µM) | relative viability ([2]; first compound 0.8 µM) | relative viability ([2]; first compound 2.53 µM) | relative viability ([3]; first compound 0.08 µM) | relative viability ([3]; first compound 0.253 µM) | relative viability ([3]; first compound 0.8 µM) | relative viability ([3]; first compound 2.53 µM)
HOP-62 | 0.716 | 0.579 | 0.569 | 0.534 | 0.428 | 0.799 | 0.743 | 1.02 | 0.803 | 0.891 | 0.89 | 0.903 | 0.963 | 1.02 | 1.03 | 1.12 | 1.03 | 0.982
LC-2-ad | 0.706 | 0.631 | 0.72 | 0.645 | 0.575 | 0.839 | 0.867 | 0.9 | 0.837 | 0.633 | 0.818 | 0.796 | 0.847 | 0.891 | 0.484 | 0.484 | 0.449 | 0.475
LCLC-97TM1 | 0.666 | 0.671 | 0.887 | 0.601 | 0.655 | 0.53 | 0.482 | 0.735 | 0.522 | 0.51 | 0.185 | 0.188 | 0.199 | 0.185 | 0.558 | 0.379 | 0.573 | 0.572
LK-2 | 0.333 | 0.203 | 0.218 | 0.297 | 0.165 | 0.235 | 0.2 | 0.21 | 0.223 | 0.218 | 0.715 | 0.349 | 0.64 | 0.657 | 0.844 | 0.798 | 1.18 | 0.841
LOU-NH91 | 1.07 | 0.961 | 0.912 | 1 | 1 | 0.804 | 0.716 | 0.747 | 0.694 | 0.756 | 0.921 | 0.778 | 0.96 | 1.01 | 0.676 | 0.545 | 0.865 | 0.818
LU99A | 0.46 | 0.526 | 0.567 | 0.532 | 0.409 | 0.288 | 0.27 | 0.386 | 0.278 | 0.317 | 0.512 | 0.486 | 0.566 | 0.47 | 0.756 | 0.779 | 1.01 | 0.742
LXF-289 | 0.777 | 0.796 | 0.714 | 0.81 | 0.677 | 0.809 | 0.851 | 0.8 | 0.847 | 0.914 | 0.962 | 0.92 | 1 | 0.972 | 0.951 | 0.952 | 0.999 | 0.931
NCI-H23 | 0.569 | 0.639 | 0.64 | 0.538 | 0.39 | 0.605 | 0.695 | 0.612 | 0.71 | 0.661 | 0.584 | 0.526 | 0.498 | 0.454 | 0.86 | 0.642 | 0.949 | 0.754
NCI-H322M | 1.04 | 0.844 | 0.739 | 0.8 | 0.88 | 0.515 | 0.58 | 0.576 | 0.523 | 0.599 | 0.94 | 0.976 | 1.02 | 1.04 | 1.3 | 1.18 | 1.28 | 1.22
NCI-H441 | 0.828 | 0.856 | 0.761 | 0.623 | 0.607 | 0.709 | 0.693 | 0.76 | 0.609 | 0.571 | 0.6 |  | 0.863 | 0.404 | 0.551 |  | 0.622 | 0.518
NCI-H460 | 0.74 | 0.71 | 0.599 | 0.524 | 0.565 | 0.588 | 0.82 | 0.91 | 0.661 | 0.728 | 0.854 | 0.556 | 0.986 | 0.672 | 1.13 | 1.1 | 1.39 | 1.22
NCI-H520 | 0.543 | 0.745 | 0.706 | 0.731 | 0.469 | 0.243 | 0.259 | 0.25 | 0.23 | 0.289 | 0.941 | 0.875 | 1.12 | 0.815 | 0.97 | 1.1 | 1.16 | 1.13
NCI-H596 | 0.572 | 0.633 | 0.628 | 0.584 | 0.757 | 0.781 | 0.711 | 0.84 | 0.684 | 0.781 | 1.09 | 0.968 | 1.25 | 1.14 | 1.03 | 0.847 | 1.24 | 1.15
NCI-H647 | 0.559 | 0.724 | 0.399 | 0.51 | 0.334 | 0.618 | 0.744 | 0.689 | 0.653 | 0.633 | 1.2 | 1.17 | 1.48 | 0.955 | 1.15 | 1.09 | 1.46 | 1.18
NCI-H727 | 1.28 | 1.26 | 1.24 | 0.886 | 1.23 | 0.644 | 0.624 | 0.682 | 0.55 | 0.638 | 0.234 | 0.356 | 0.295 | 0.269 | 0.457 | 0.415 | 0.405 | 0.373
NCI-H838 | 0.7 | 0.684 | 0.652 | 0.631 | 0.607 | 0.428 | 0.37 | 0.422 | 0.386 | 0.393 | 0.962 | 1 | 1 | 0.827 | 1.1 | 1.07 | 1.25 | 0.854
NCI-H1355 | 0.668 | 0.641 | 0.646 | 0.607 | 0.606 | 0.462 | 0.455 | 0.372 | 0.425 | 0.498 | 0.781 | 0.782 | 0.957 | 0.805 | 1.06 | 0.919 | 0.928 | 0.983
NCI-H1395 | 1.03 | 0.791 | 0.649 | 0.683 | 0.681 | 0.679 | 0.672 | 0.669 | 0.591 | 0.637 | 1.22 | 1.03 | 1.09 | 1 | 1.1 | 1.1 | 1.55 | 1.1
NCI-H1437 | 0.918 | 0.672 | 0.74 | 0.694 | 0.529 | 0.921 | 0.861 | 0.943 | 0.909 | 0.847 | 1.01 | 1 | 1.28 | 0.965 | 1.1 | 1.17 | 1.14 | 1.11
NCI-H1651 | 0.612 | 0.573 | 0.578 | 0.466 | 0.345 | 0.746 | 0.704 | 0.799 | 0.694 | 0.63 | 0.966 | 0.903 | 1.1 | 0.913 | 0.89 | 0.957 | 0.956 | 0.951
NCI-H1666 | 1.01 | 0.978 | 1.08 | 0.931 | 0.858 | 0.913 | 0.881 | 0.836 | 0.923 | 0.854 | 0.814 | 0.8 | 0.932 | 0.955 | 0.939 | 1.14 | 0.889 | 0.93
NCI-H1734 | 0.762 | 0.86 | 0.858 | 0.736 | 0.724 | 0.599 | 0.611 | 0.731 | 0.562 | 0.595 | 0.87 | 0.76 | 0.947 | 0.863 | 0.862 | 0.719 | 1.13 | 0.786
NCI-H1755 | 0.862 | 0.819 | 0.682 | 0.768 | 0.651 | 0.77 | 0.773 | 0.729 | 0.777 | 0.726 | 0.99 | 0.988 | 1.02 | 0.958 | 0.98 | 0.956 | 1.02 | 0.961
NCI-H1793 | 0.792 | 0.914 | 0.794 | 0.727 | 0.634 | 0.329 | 0.285 | 0.249 | 0.282 | 0.381 | 0.731 | 0.568 | 0.894 | 0.686 | 0.516 | 0.353 | 0.479 | 0.512
NCI-H1915 | 0.5 | 0.495 | 0.529 | 0.462 | 0.423 | 0.669 | 0.612 | 0.665 | 0.637 | 0.677 | 1.11 | 1.13 | 1.1 | 1.03 | 0.815 | 0.76 | 0.804 | 0.812
NCI-H1944 | 0.592 | 0.647 | 0.582 | 0.568 | 0.654 | 0.462 | 0.459 | 0.49 | 0.415 | 0.464 | 1.07 | 1.15 | 1.27 | 1.14 | 1.04 | 1.08 | 1.08 | 1.03
NCI-H1975 | 0.741 | 0.761 | 0.687 | 0.675 | 0.582 | 0.742 | 0.912 | 0.687 | 0.731 | 0.718 | 0.947 | 0.917 | 1.1 | 0.656 | 0.951 | 1.05 | 1.23 | 1.12
NCI-H1993 | 0.19 | 0.862 | 0.83 | 0.72 | 0.842 | 0.623 | 0.513 | 0.525 | 0.549 | 0.539 |  | 0.77 | 0.707 | 0.738 |  | 0.896 | 0.912 | 1.02
NCI-H2009 | 0.72 | 0.682 | 0.622 | 0.546 | 0.266 | 0.6 | 0.66 | 0.669 | 0.545 | 0.305 | 1.19 | 1.12 | 1.16 | 1.16 | 1.29 | 1.24 | 1.14 | 1.08
